The experiment has as its system CEM cells HIV-1 protection, formazan growth assay. The experiment can be described thus: NCI AIDS Antiviral Assay. The following applies: for IC50: measured here: growth of uninfected CEM cells. As for the experimental part:
The ability of compounds to protect human CEM cells from HIV-1 infection is measured as a screen for new compounds capable of inhibiting the HIV virus. Five concentrations of drug were tested on uninfected and infected cells and cell growth was measured using a soluble formazan assay. […] Compounds that provided at least 50% protection were retested. Compounds that provided at least 50% protection on retest were listed as moderately active. Compounds that reproducibly provided 100% protection were listed as confirmed active. […] Note that the inability to provide protection could be due to toxicity.

Active and inactive are the calls of the source.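 The calls were made as follows: active = compounds giving half or more protection of infected cells from virus-caused growth loss, again on retest; inactive = the rest.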 A value given as a limit tells only on which side of the number the result lay.

What is called EC50 is the concentration giving half of the maximal effect. Usually IC50 stands for the midpoint of a concentration-inhibition curve. Lower therefore signals greater potency. Consider `O=C1C=C(CCC2=CC(=O)c3ccccc3C2=O)C(=O)c2ccccc21`, for which the EC50 was above 200 µM and the concentration for half-maximal inhibition (IC50) turned out to be 91.2 µM.
Consider `CCc1n[nH]c(=O)n1-c1ccc2ccccc2c1`, for which the EC50 is above 100 µM and the IC50 is above 100 µM.
For `NC1N=C(c2ccc(Cl)cc2)C2=C(N1)c1ccccc1CC2` (stereo not given), the EC50 was above 200 µM and the IC50 stood at 6.76 µM.
For `CC1=NNC(=O)C1C1CC(c2c[nH]c3ccccc23)=NN(c2ccccc2)C1=O` (stereo not given) the same measures were above 200 µM and 33.9 µM.
Consider `NC(C(=O)O)C1=CCCCCC1` (stereo not given), for which the EC50 is above 200 µM and the IC50 was above 200 µM.
Regarding `O=CN/C=C/c1cc(O)ccc1O`, the EC50 was above 79.4 µM and the IC50 was determined as 4.57 µM.
As to `CCCCCCCCCCCCCCCC(=O)Nc1ccn(C2CCC(COP(=O)(O)OC3CC(n4cc(C)c(=O)[nH]c4=O)OC3CO)O2)c(=O)n1` (stereo not given), the EC50 was 0.0933 µM and the IC50 came out at 45.7 µM.
With `COc1cc(Br)c(C=Nc2cccc3ccc(OS(=O)(=O)c4cccc([N+](=O)[O-])c4)cc23)cc1OC`, the outcome was inactive.
For `COc1cc(C)cc2c(-c3c(OC(C)=O)cc(OC(C)=O)c4c3C[C@H](C)N(C(C)=O)[C@H]4C)cc(-c3cc(-c4c(OC(C)=O)cc(OC(C)=O)c5c4C[C@H](C)N(C(C)=O)[C@H]5C)c4cc(C)cc(OC)c4c3O)c(O)c12`, the EC50 is above 200 µM and the IC50 is 40.7 µM.
For `CCOC(=O)Cc1c(C)c2ccc(OC(C)=O)c(OC(C)=O)c2oc1=O`, the EC50 is above 200 µM and the IC50 was determined as 36.3 µM.
For `CN(C)CCN1C(=O)c2ccccc2N(C)c2ccccc21` the same measures were above 200 µM and above 200 µM.
Regarding `CCC1CC2CC3c4[nH]c5ccc(OC)cc5c4CCN(C2)C13` (stereo not given), the outcome was inactive.
As for `COc1ccc2c(c1)c(=O)c1c(NCCN(C)C)ccc3c(=O)n(CCN(C)C)c(=O)n2c31`, the EC50 is 0.0204 µM and the IC50 was 0.0324 µM.
For `O=C1NC2NC(=O)NC2N1` (stereo not given), the EC50 is above 479 µM and the IC50 is above 479 µM.
On to `CC1=C(C)C(=O)c2c(cc3ccc4ccccc4n23)C1=O`, for which the result was inactive.
Take `Cc1ncc([N+](=O)[O-])n1CCNC(=O)CCCn1ccnc1[N+](=O)[O-]`: the outcome was inactive.
As to `NNC1=Cn2c(nc3ccccc32)NN1`, the outcome was inactive.
In the case of `CC(C)(C[NH-])C[NH-].[Cl][Pt+2][Cl]`, the EC50 is above 676 µM and the IC50 was 2.04 µM.
`Nc1nc(N)c(NC(=O)CCCO)c(=O)[nH]1`: the EC50 is above 200 µM and the IC50 was above 200 µM.
With `CN(C)c1nc(=NCc2cccs2)ss1`, the EC50 is above 200 µM and the IC50 was 17.4 µM.
As to `COc1ccc(-c2nnc3n(Cc4ccccc4)c4ccccc4n3c2=O)cc1`, the EC50 was above 200 µM and the IC50 is above 200 µM.
Take `CN(COC(=O)C(C)(C)C)c1nc(N(C)COC(=O)C(C)(C)C)nc(N(C)COC(=O)C(C)(C)C)n1`: the EC50 is above 100 µM and the IC50 stood at 18.6 µM.
For `CCC1=C(OC)c2nccc(C)c2C(=O)C1=O`, the result was inactive.
As to `c1ccc(OP2(Oc3ccccc3)=NP(Oc3ccccc3)(Oc3ccccc3)=NP(Oc3ccccc3)(Oc3ccccc3)=NP(Oc3ccccc3)(Oc3ccccc3)=N2)cc1`, the EC50 is above 100 µM and the IC50 was above 100 µM.
In the case of `NC(=S)NNC(=O)CCC(=O)Nc1ccc(Cl)cc1Cl`, the EC50 is above 107 µM and the IC50 is above 107 µM.
On to `CC(C)Cn1cnc2c(NCC(C)O)nc3ccccc3c21` (stereo not given), for which the EC50 is above 200 µM and the 50% inhibitory concentration (IC50) is 87.1 µM.
As to `COc1ccc(C(=O)N2c3ccccc3N(C)n3cccc3C2CC(=O)O)cc1` (stereo not given), the EC50 is above 646 µM and the IC50 amounted to 234 µM.
Consider `O=C1CC(c2ccccc2)n2cccc21` (stereo not given), for which the outcome was inactive.
With `CCc1c(N=[N+]=[N-])c2ccccc2oc1=O`, the outcome was inactive.
With `COc1cc(C2c3cc4c(cc3OC(NN=C(C)C)C2C)OCO4)cc(OC)c1O` (stereo not given), the EC50 is above 200 µM and the IC50 is 5.5 µM.
For `CCOP(=O)(OCC)/C(C#N)=C/c1ccccn1`, the EC50 is 148 µM and the concentration for half-maximal inhibition (IC50) is above 200 µM.
The matching figures for `CC(=O)OCC1OC(n2c(C)c(N=Nc3ccc(Cl)cc3)c(C)c(C#N)c2=S)C(OC(C)=O)C(OC(C)=O)C1OC(C)=O` (stereo not given): above 200 µM and above 200 µM.
In the case of `Cc1cc2occ(-c3ccc(Cl)cc3)c2c(=O)o1`, the EC50 is above 20 µM and the IC50 was above 20 µM.
Consider `CCOC(=O)C(=O)Nc1c(C(C)C)cccc1C(C)C`, for which the outcome was inactive.
Regarding `Cc1c2nc3ccccc3sc-2cc(=O)c1C`, the EC50 is above 21.4 µM and the IC50 was above 21.4 µM.
For `N#Cc1ccc(/C=C(/C(=O)c2ccccc2)c2ccccc2)cc1`, the EC50 is above 17 µM and the IC50 turned out to be 9.55 µM.
The matching figures for `COc1cc2c(cc1OC)[C@H](C(=O)O)[C@@H](c1ccc(OC(C)C)c(OC)c1)N(C)C2=O`: above 200 µM and above 200 µM.
Turning to `O=C(O)c1c[nH]cc1C(=O)O`, the outcome was inactive.
Consider `c1ccc2c(c1)OCCOCCOc1ccccc1OCCO2`, for which the EC50 was above 295 µM and the IC50 stood at 74.1 µM.
As to `CCCCC1SC2=NCCN2C1(O)c1ccc(Cl)cc1` (stereo not given), the EC50 is above 200 µM and the half-inhibitory concentration (IC50) was found to be 102 µM.
On to `Cc1c(N=Nc2ccc(N(C)C)cc2)cc[n+]([O-])c1C`, for which the EC50 was above 200 µM and the 50% inhibitory concentration (IC50) is above 200 µM.
As for `COCC(N=CN1CCCc2ccccc2[C@@H]1CCCCl)C(C)(C)C` (stereo not given in full), the EC50 is above 200 µM and the IC50 is 22.4 µM.
Turning to `COc1cc(Nc2ccc3c(c2)CCC3)nc(OC)n1`, the EC50 was above 200 µM and the IC50 was determined as 31.6 µM.
For the compound `N#CC(C#N)=c1ccc(=C2N3CCCC3CN2C23CC4CC(CC(C4)C2)C3)cc1` (stereo not given), the result was inactive.
As for `CCOC(=O)/C(C#N)=C(N)/C(=N\Nc1cccc(C(F)(F)F)c1)C(=O)OCC`, the result was inactive.
As to `O=c1cc2ccccc2nn1Cc1cccc(Cl)c1`, the EC50 is above 115 µM and the IC50 is 102 µM.
Consider `ClCCN1CCOC1=Nc1ccc2c(c1)CCCC2`, for which the EC50 was above 200 µM and the IC50 was 43.7 µM.
With `CS(=O)(=O)OCCCNCCCOS(C)(=O)=O`, the EC50 was above 759 µM and the IC50 was determined as 562 µM.
The matching figures for `CCCCOP(=O)(OCCCC)C(NS(=O)(=O)c1ccccc1)(C(=O)OCC)C(F)(F)F` (stereo not given): above 200 µM and 19.1 µM.
As to `O=C(/C=C/c1ccc(Cl)c(Cl)c1)c1cccc2ccccc12`, the EC50 is above 3.16 µM and the IC50 was above 3.16 µM.
`[O-]c1c2cc(-[n+]3c(-c4ccccc4)cc(-c4ccccc4)cc3-c3ccccc3)cc1COCCOCCOCCOCCOC2`: the EC50 is above 200 µM and the IC50 was 36.3 µM.
On to `CCCCCCCNC(C)(C)C(SSSC(c1ccc(Cl)cc1)C(C)(C)NCCCCCCC)c1ccc(Cl)cc1` (stereo not given), for which the EC50 was above 100 µM and the IC50 is above 100 µM.
In the case of `NC(CCCC(N)P(=O)(O)O)C(=O)O` (stereo not given), the result was inactive.
In the case of `Cc1c(C2Cc3ccccc3N2)c2ccccc2n1C` (stereo not given), the EC50 was above 603 µM and the IC50 is 195 µM.
In the case of `CC1(C)OC(=O)C(C(N)=O)=C1/C=C1\OC(=O)c2ccccc21`, the EC50 is above 24 µM and the IC50 is above 24 µM.
Regarding `CC(C)OP(=O)(OC(C)C)C(=NCCN=C(NNc1ccccc1[N+](=O)[O-])P(=O)(OC(C)C)OC(C)C)NNc1ccccc1[N+](=O)[O-]`, the EC50 was above 13.8 µM and the IC50 was above 13.8 µM.
For the compound `COc1ccc(C2c3ccccc3C3(O)CC2CC(=O)O3)cc1` (stereo not given), the EC50 was above 200 µM and the IC50 is above 100 µM.
Take `N#CC(C(=S)Nc1ccccc1)=C1Nc2ccccc2N1`: the EC50 was above 200 µM and the IC50 is above 200 µM.
In the case of `COc1ccccc1Nc1nc(N)nc(N)c1N=O`, the EC50 is above 200 µM and the IC50 is above 200 µM.
Take `O=C1NC(=O)/C(=C\c2ccncc2)N1`: the EC50 was above 200 µM and the IC50 was above 200 µM.
`CCC(=O)OC1CCn2c1nc1c2C(=O)C(C)=C(NC(C)=O)C1=N` (stereo not given): the EC50 was above 200 µM and the IC50 amounted to 3.55 µM.
As to `CC1(C)COC2(C)N(c3ccccc3)C(=O)ON12` (stereo not given), the EC50 was above 200 µM and the IC50 was above 200 µM.
Consider `C=C(CCCC(C)OC(C)OCC)[Si](C)(C)C` (stereo not given), for which the EC50 is above 38.9 µM and the IC50 was above 38.9 µM.
For the compound `CC(=O)OC1CC2C(C)(C)CCC[C@]2(C)C2=C1C(O)=C(C(C)C)C(=O)C2=O` (stereo not given in full), the outcome was inactive.
As for `COc1c(OC)c(OC)c2c(=O)cc(-c3ccc4c(c3)OCO4)oc2c1OC`, the EC50 is above 200 µM and the IC50 was above 200 µM.
In the case of `O=S(=O)(O)C(O)C(F)(F)C(F)(F)C(F)(F)F` (stereo not given), the EC50 was above 200 µM and the IC50 is above 200 µM.
Turning to `COc1ccc(NC(=O)CC/C(CC(=O)C(C)(C)C)=N\NC(=O)C(N)=O)cc1`, the EC50 was above 93.3 µM and the IC50 was above 93.3 µM.
For `COC(=O)c1cc(=O)nc(NN)s1`, the EC50 was above 50.1 µM and the IC50 is above 50.1 µM.
Compound `Cc1nn(-c2ccc(S(=O)(=O)[O-])cc2)c([O-])c1N=[N+](C)c1ccc(-c2ccc(N=Nc3ccc4c(S(=O)(=O)[O-])cc(S(=O)(=O)[O-])c(N)c4c3[O-])c([O-])c2)cc1[O-].[Cu+2].[Cu+2].[Na+]` had a half-maximal effective concentration (EC50) of 6.76 µM and an IC50 of 120 µM.
In the case of `OCC1OC2c3ccccc3COC2C1OCc1ccccc1` (stereo not given), the result was inactive.
With `COc1nc(C)nc2c1ncn2Cc1ccccc1`, the EC50 was above 200 µM and the IC50 is above 200 µM.
In the case of `Cc1cccc(O)c(=O)c1`, the result was inactive.
As for `CCCn1c(SCCSc2c3ccccc3c(-c3nc(F)nc(F)n3)n2CCC)c2ccccc2c1-c1nc(F)nc(F)n1`, the EC50 is above 4.07 µM and the IC50 amounted to 3.98 µM.

Source of the values: PubChem BioAssay AID179 (DTP/NCI, 2004).
